Tests used:
RORγ-LBD = biological target: T1, RORγ-LBD (Homo sapiens, UniProt P51449); assay: RORγ-Ligand Binding Domain (LBD) TR-FRET Assay; format: biochemical; settings: for TR-FRET Assay Max Response: maximum response;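 on TR-FRET Assay Max Response: 665/615 nm signal ratio set to 100 without ursolic acid or test compound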
T1 construct: made in house; host or cells: SF9 cells (baculovirus); used as diluted lysate
T1 sequence (P51449 269-508 limits assumed): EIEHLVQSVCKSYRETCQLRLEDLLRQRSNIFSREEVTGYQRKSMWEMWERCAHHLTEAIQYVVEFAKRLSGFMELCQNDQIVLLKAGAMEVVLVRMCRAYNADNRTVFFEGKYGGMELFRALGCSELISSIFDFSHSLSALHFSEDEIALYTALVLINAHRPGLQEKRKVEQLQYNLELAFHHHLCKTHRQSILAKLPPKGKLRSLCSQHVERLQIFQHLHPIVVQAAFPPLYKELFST
Method in brief: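 SF9 lysate containing His-RORγ-LBD, ~3 nM final; coactivator peptide biotin-SRC1 LXXLL, 200 nM final; ursolic acid 2 μM final; DMSO 1% final; Tris pH 7.0 buffer with KCl, EDTA, DTT, BSA. TR-FRET format.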

Gal4-RORγ-LBD = biological target: T2, Gal4-RORγ-LBD (Homo sapiens, UniProt P51449); assay: Gal4-RORγ Luciferase Reporter Assay in HEK-293T Cells; format: cell-based; settings: HEK-293 cells; for Gal4-RORγ Assay Max Response: maximum response
T2 construct: expressed in transfected cells
T2 sequence (P51449 269-508 limits assumed): T1 sequence (P51449 269-508 limits assumed)
Method in brief: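 HEK-293 cells were co-transfected with Gal4-RORγ-LBD and a Gal4-luciferase reporter, then exposed overnight at 37 °C to compounds with […] ursolic acid present (0.2% DMSO). Luminescence was read with One-Glo after 10 min at RT, untreated signal was set as 100, and Max Response was taken as the upper plateau of a 4-parameter logistic fit.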

[1] = luciferase reporter, in presence of ursolic acid
[2] = luciferase reporter, with ursolic acid

SMILES | EC50 (RORγ-LBD; RORγ-LBD TR-FRET) [nM] | EC50 (Gal4-RORγ-LBD; [2]) [nM] | also measured
CC(C)(CC1CC(S(=O)(=O)c2cccc(C(F)(F)F)c2)c2cc(OCc3c(F)cccc3Cl)ccc2O1)C(=O)O (stereo not shown) [Example 186E, 3-(6-((2-chloro-6-fluorobenzyl)oxy)-4-((3-(trifluoromethyl)phenyl)-sulfonyl)chroman-2-yl)-2,2-dimethylpropanoic acid] |  |  | EC50 (RORγ-LBD; RORγ-LBD TR-FRET assay): < 500 nM; TR-FRET Assay Max Response (RORγ-LBD; RORγ-LBD TR-FRET assay): ** (a value in the range of greater than 90 to 150); EC50 (Gal4-RORγ-LBD; [1]): 500 to 5000 nM; Gal4-RORγ Assay Max Response (Gal4-RORγ-LBD; [1]): ** (a value in the range of greater than 90 to 150)
O=C(O)CC[C@H]1CN(S(=O)(=O)c2cccc(C(F)(F)F)c2)c2cc(C3=CCCCC3)ccc2O1 [Example 193, (S)-3-(6-(cyclohex-1-en-1-yl)-4-((3-(trifluoromethyl)phenyl)sulfonyl)-3,4-dihydro-2H-benzo[b][1,4]oxazin-2-yl)propanoic acid] |  |  | EC50 (RORγ-LBD; with 2 μM ursolic acid (RORγ antagonist), highest test concentration 10 μM): < 500 nM; EC50 (Gal4-RORγ-LBD; ursolic acid present, luciferase readout): < 500 nM
COC(=O)CC[C@H]1CN(S(=O)(=O)c2cccc(OC(F)F)c2)c2cc(/C=C/c3ccccc3C(F)(F)F)ccc2O1 [Example 89AP, (S,E)-methyl 3-(4-((3-(difluoromethoxy)phenyl)sulfonyl)-6-(2-(trifluoromethyl)styryl)-3,4-dihydro-2H-benzo[b][1,4]-oxazin-2-yl)propanoate] | < 500 | 500 to 5000 | 
COC(=O)CC[C@H]1CN(S(=O)(=O)c2cc(C(F)(F)F)cnc2OCCCO)c2cc(/C=C/c3c(F)cccc3Cl)ccc2O1 [Example 89FD, methyl (S,E)-3-(6-(2-chloro-6-fluorostyryl)-4-((2-(3-hydroxypropoxy)-5-(trifluoromethyl)pyridin-3-yl)sulfonyl)-3,4-dihydro-2H-benzo[b][1,4]-oxazin-2-yl)propanoate] | < 500 | 500 to 5000 | 
O=C(O)CC[C@H]1CN(S(=O)(=O)c2cccc(C(F)(F)F)c2)c2cc(C=C3CCC(O)CC3)ccc2O1 (stereo partly shown) [Example 94] | < 500 | 500 to 5000 | 
CCc1nc(S(=O)(=O)N2C[C@H](CCC(=O)O)Oc3ccc(/C=C/c4c(F)cccc4Cl)cc32)c[nH]1 [Example 89DW, (S,E)-3-(6-(2-chloro-6-fluorostyryl)-4-((2-ethyl-1H-imidazol-4-yl)sulfonyl)-3,4-dihydro-2H-benzo[b][1,4]-oxazin-2-yl)propanoic acid] | > 10000 | > 10000 | 
C/C(=C\c1ccc2c(c1F)N(S(=O)(=O)c1cccc(OC(F)F)c1)C[C@H](CCC(=O)O)O2)c1c(F)cccc1Cl [Example 64, (S,E)-3-(6-(2-(2-Chloro-6-fluorophenyl)prop-1-en-1-yl)-4-((3-(difluoromethoxy)phenyl)sulfonyl)-5-fluoro-3,4-dihydro-2H-benzo[b][1,4]oxazin-2-yl)propanoic acid] | < 500 | 500 to 5000 | 
CC1CCCC(=Cc2ccc3c(c2)N(S(=O)(=O)c2cc(C(F)(F)F)cnc2OCCO)C[C@H](CCC(=O)O)O3)C1 (stereo partly drawn) [Example 95U, 3-((2S)-4-((2-(2-hydroxyethoxy)-5-(trifluoromethyl)pyridin-3-yl)sulfonyl)-6-((3-methylcyclohexylidene)methyl)-3,4-dihydro-2H-benzo[b][1,4]oxazin-2-yl)propanoic acid] | < 500 | 500 to 5000 | 
COC(=O)CC[C@H]1CN(S(=O)(=O)c2cc(C(F)(F)F)cnc2OCCO)c2cc(/C=C/c3c(Cl)cccc3C(F)F)ccc2O1 [Example 89EL, methyl (S,E)-3-(6-(2-chloro-6-(difluoromethyl)styryl)-4-((2-(2-hydroxyethoxy)-5-(trifluoromethyl)pyridin-3-yl)sulfonyl)-3,4-dihydro-2H-benzo[b][1,4]oxazin-2-yl)propanoate] | < 500 | < 500 | 
CCOc1ncc(C(F)(F)F)cc1S(=O)(=O)N1C[C@H](CCC(=O)O)Oc2ccc(/C=C/c3c(Cl)cccc3C(F)(F)F)cc21 [Example 89DM, (S,E)-3-(6-(2-chloro-6-(trifluoromethyl)styryl)-4-((2-ethoxy-5-(trifluoromethyl)-pyridin-3-yl)sulfonyl)-3,4-dihydro-2H-benzo[b][1,4]-oxazin-2-yl)propanoic acid] | < 500 | < 500 | 
O=C(O)CC[C@H]1CN(S(=O)(=O)c2cc(C(F)(F)F)cnc2OCCO)c2cc(/C=C3/CCCOC3)ccc2O1 [Example 95Y, (S,Z)-3-(6-((dihydro-2H-pyran-3(4H)-ylidene)methyl)-4-((2-(2-hydroxyethoxy)-5-(trifluoromethyl)pyridin-3-yl)sulfonyl)-3,4-dihydro-2H-benzo[b][1,4]oxazin-2-yl)propanoic acid] | < 500 | 500 to 5000 | 
COC(=O)CC[C@H]1CN(S(=O)(=O)c2cn(C(F)F)nc2C)c2cc(/C=C(\C)c3c(F)cccc3Cl)ccc2O1 [Example 86X, (S)-methyl 3-(6-(2-(2-chloro-6-fluorophenyl)prop-1-en-1-yl)-4-((1-(difluoromethyl)-3-methyl-1H-pyrazol-4-yl)sulfonyl)-3,4-dihydro-2H-benzo[b][1,4]oxazin-2-yl)propanoate] | < 500 | 500 to 5000 | 
CCOc1nn(CC)cc1S(=O)(=O)N1C[C@H](CCC(=O)OC)Oc2ccc(/C=C/c3cccc(OC)n3)cc21 [Example 89T, (S,E)-methyl 3-(4-((3-ethoxy-1-ethyl-1H-pyrazol-4-yl)-sulfonyl)-6-(2-(6-methoxypyridin-2-yl)vinyl)-3,4-dihydro-2H-benzo[b][1,4]-oxazin-2-yl)propanoate] | > 10000 | > 10000 | 
O=C(O)CC[C@H]1CN(S(=O)(=O)c2cccc(C(F)(F)F)c2)c2cc(/C=C3\CCCc4ccccc43)ccc2O1 [Example 37, (S,E)-3-(6-((3,4-Dihydronaphthalen-1(2H)-ylidene)methyl)-4-((3-(trifluoromethyl)phenyl)sulfonyl)-3,4-dihydro-2H-benzo[b][1,4]oxazin-2-yl)propanoic acid] | < 500 | < 500 | 
CCOc1nn(CC)cc1S(=O)(=O)N1C[C@H](CCC(=O)O)Oc2ccc(/C=C/c3cccc(Cl)n3)cc21 [Example 89AA, (S,E)-3-(6-(2-(6-chloropyridin-2-yl)vinyl)-4-((3-ethoxy-1-ethyl-1H-pyrazol-4-yl)sulfonyl)-3,4-dihydro-2H-benzo[b][1,4]oxazin-2-yl)propanoic acid] | 500 to 5000 | > 10000 | 
CCOc1ncc(C(F)(F)F)cc1S(=O)(=O)N1C[C@H](CCC(=O)OC)Oc2ccc(/C=C(\C)c3c(F)cccc3Cl)cc21 [Example 33, (S,E)-Methyl 3-(6-(2-(2-chloro-6-fluorophenyl)prop-1-en-1-yl)-4-((2-ethoxy-5-(trifluoromethyl)pyridin-3-yl)sulfonyl)-3,4-dihydro-2H-benzo[b][1,4]oxazin-2-yl)propanoate] | < 500 | 500 to 5000 | 
COC(=O)CC[C@H]1CN(S(=O)(=O)c2cccc(C(F)(F)F)c2)c2cc(/C=C(\C)c3ccccc3C(F)(F)F)ccc2O1 [Example 86AH, (S,E)-methyl 3-(6-(2-(2-(trifluoromethyl)phenyl)prop-1-en-1-yl)-4-((3-(trifluoromethyl)phenyl)-sulfonyl)-3,4-dihydro-2H-benzo[b][1,4]oxazin-2-yl)propanoate] | < 500 | 500 to 5000 | 
O=C(O)CC[C@H]1CN(S(=O)(=O)c2cccc(C(F)(F)F)c2)c2cc(/C=C/c3ncccc3C(F)(F)F)ccc2O1 [Example 89BI, (S,E)-3-(4-((3-(trifluoromethyl)phenyl)sulfonyl)-6-(2-(3-(trifluoromethyl)pyridin-2-yl)vinyl)-3,4-dihydro-2H-benzo[b][1,4]oxazin-2-yl)propanoic acid] | < 500 | < 500 | 
COc1cc(S(=O)(=O)N2C[C@H](CCNC(=O)[C@H](C)O)Oc3ccc(/C=C(\C)c4c(F)cccc4Cl)cc32)ccc1F [Example 116D, (S)-N-(2-((S)-6-((E)-2-(2-chloro-6-fluorophenyl)prop-1-en-1-yl)-4-((4-fluoro-3-methoxyphenyl)sulfonyl)-3,4-dihydro-2H-benzo[b][1,4]oxazin-2-yl)ethyl)-2-hydroxypropanamide] |  |  | EC50 (RORγ-LBD; RORγ-LBD TR-FRET assay): < 500 nM; TR-FRET Assay Max Response (RORγ-LBD; RORγ-LBD TR-FRET assay): *** (a value in the range of greater than 150 to 200); EC50 (Gal4-RORγ-LBD; [1]): < 500 nM; Gal4-RORγ Assay Max Response (Gal4-RORγ-LBD; [1]): ** (a value in the range of greater than 90 to 150)
CC(=O)NCC1CC(S(=O)(=O)c2cccc(C(F)(F)F)c2)c2cc(/C=C(\C)c3c(F)cccc3Cl)ccc2O1 (stereo not shown) [Example 181, (E)-N-((6-(2-(2-Chloro-6-fluorophenyl)prop-1-en-1-yl)-4-((3-(trifluoromethyl)phenyl)sulfonyl)chroman-2-yl)methyl)acetamide] |  |  | EC50 (RORγ-LBD; RORγ-LBD TR-FRET assay): < 500 nM; TR-FRET Assay Max Response (RORγ-LBD; RORγ-LBD TR-FRET assay): ** (a value in the range of greater than 90 to 150); EC50 (Gal4-RORγ-LBD; [1]): < 500 nM; Gal4-RORγ Assay Max Response (Gal4-RORγ-LBD; [1]): ** (a value in the range of greater than 90 to 150)

From patent US9896441B2 (Lycera Corporation, priority 2014, dated 2018)
